Measurements as given in US7183415B2, “Quinoline compound” (Takeda Pharmaceutical Company Limited, priority 2001, dated 2007).

System: SD (Sprague Dawley) rats
Test: Evaluation of antidepressive action by forced swim test
Type: in vivo, rat
Conditions: 3 mg/kg body weight, oral, 30 minutes before test, five minutes measured, n=10; control group 30.86±8.71
Protocol: By performing a forced swim test using SD (Sprague Dawley) rats (seven-week-old, male, body weight 233.3–266.9 g, purchased from Japan Clea), the antidepressive action of the compound of the present invention was evaluated.
First, a suspension of the compound of Example 19 in 0.5% methyl cellulose was orally administered to SD rats (n=10) (compound dose: 3 mg/kg body weight). Thirty minutes later, the rats were placed in a pipe (diameter 21 cm, height 50 cm) made of Plexiglass (trade name, made by Rohm & Haas, U.S.A.) containing tap water (water temperature 25±2° C., 30 cm deep). Immobility time of the rats for five minutes thereafter was measured using a digital video camera.
In addition, 0.5% methyl cellulose suspension without the compound was orally administered to SD rats (n=10), and the rats were subjected the forced swim test in the same manner as above and taken as a control group.

| SMILES | immobility time (seconds, mean±standard deviation) [s] |
| --- | --- |
| Cc1c(NC(=O)c2ccc(-c3ccc(F)cc3)cc2)ccc2cc(CN3CCCC3)cnc12 [Example 19, 4′-fluoro-N-[8-methyl-3-(1-pyrrolidinylmethyl)-7-quinolinyl][1,1′-biphenyl]-4-carboxamide] | 15.93 ± 5.62 |

System: not given
Test: not given
Conditions: not given

| melting point | SMILES |
| --- | --- |
| 228 °C | Cc1cc2cc(CN3CCC(CCCC(N)=O)CC3)cnc2cc1NC(=O)c1ccc(-c2ccc(F)cc2)cc1 [Example 264, N-(3-{[4-(4-amino-4-oxobutyl)-1-piperidinyl]methyl}-6-methyl-7-quinolinyl)-4′-fluoro[1,1′-biphenyl]-4-carboxamide] |
| 150 to 154 °C | CCN(CC)C(=O)CCC1CCN(Cc2cnc3cc(NC(=O)c4ccc(-c5ccc(F)cc5)cc4)c(C)cc3c2)CC1 [Example 257, N-[3-({4-[3-(diethylamino)-3-oxopropyl]-1-piperidinyl}methyl)-6-methyl-7-quinolinyl]-4′-fluoro[1,1′-biphenyl]-4-carboxamide] |
| 175 to 178 °C | Cc1ccc(-c2ccc(C(=O)Nc3cc4ncc(CN5CCCC5)cc4cc3C)cc2F)cc1 [Example 234, 2-fluoro-4′-methyl-N-[6-methyl-3-(1-pyrrolidinylmethyl)-7-quinolinyl][1,1′-biphenyl]-4-carboxamide] |
| 162 to 163 °C | Cc1c(NC(=O)c2ccc(-c3ccc4c(c3)CCCCO4)cc2)ccc2cc(CN3CCCC3)cnc12 [Example 116, N-[8-methyl-3-(1-pyrrolidinylmethyl)-7-quinolinyl]-4-(2,3,4,5-tetrahydro-1-benzoxepin-7-yl)benzamide] |
| 177 to 178 °C | Cc1c(NC(=O)c2ccc(OCc3ccc(F)cc3)cc2)ccc2cc(CN3CCCC3)cnc12 (hydrate or solvate) [Example 123, 4-[(4-fluorobenzyl)oxy]-N-[8-methyl-3-(1-pyrrolidinylmethyl)-7-quinolinyl]benzamide] |
| 176 to 179 °C | Cc1ccc(-c2ccc(C(=O)Nc3cc4ncc(CN5CCCC5)cc4cc3C)c(F)c2)cc1 [Example 229, 3-fluoro-4′-methyl-N-[6-methyl-3-(1-pyrrolidinylmethyl)-7-quinolinyl][1,1′-biphenyl]-4-carboxamide] |
| 167 to 168 °C | Cc1c(NC(=O)c2ccc(-c3ccc(F)cc3)cc2)ccc2cc(CN3[C@H](C)CCC[C@@H]3C)cnc12 [Example 193, N-(3-{[(2R,6S)-2,6-dimethylpiperidinyl]methyl}-8-methyl-7-quinolinyl)-4′-fluoro[1,1′-biphenyl]-4-carboxamide] |

Further lines, the molecule ahead of its results:

| SMILES | melting point |
| --- | --- |
| COc1ccc(-c2ccc(C(=O)Nc3ccc4cc(CN5CCCC5)cnc4c3)cn2)cc1 [Example 8, 6-(4-methoxyphenyl)-N-[3-(1-pyrrolidinylmethyl)-7-quinolinyl]nicotinamide] | 246 to 248 °C |
| Cc1c(NC(=O)c2ccc(-c3ccc(F)cc3)cc2)ccc2cc(CN3CCCC3)cnc12 [Example 19, 4′-fluoro-N-[8-methyl-3-(1-pyrrolidinylmethyl)-7-quinolinyl][1,1′-biphenyl]-4-carboxamide] | 220 to 222 °C |
| CCc1c(NC(=O)c2ccc(-c3ccc(F)cc3)cc2)ccc2cc(CN3CCCC3)cnc12 [Example 83, N-[8-ethyl-3-(1-pyrrolidinylmethyl)-7-quinolinyl]-4′-fluoro[1,1′-biphenyl]-4-carboxamide] | 266 to 267 °C |
| O=C(Nc1ccc2cc(CN3CCC(CCO)CC3)cnc2c1)c1ccc(-c2ccc(F)cc2)cc1 [Example 46, 4′-fluoro-N-(3-{[4-(2-hydroxyethyl)-1-piperidinyl]methyl}-7-quinolinyl)[1,1′-biphenyl]-4-carboxamide] | 193 to 196 °C |
| Cc1ccc(-c2ccc(C(=O)Nc3ccc4cc(CN5CCCC5)cnc4c3C)cn2)cc1 [Example 94, 6-(4-methylphenyl)-N-[8-methyl-3-(1-pyrrolidinylmethyl)-7-quinolinyl]nicotinamide] | 178 to 180 °C |
| COc1ccc(-c2ccc(C(=O)Nc3cc4ncc(CN5CCCC5)cc4cc3F)c(F)c2)cc1 [Example 59, 3-fluoro-N-[6-fluoro-3-(1-pyrrolidinylmethyl)-7-quinolinyl]-4′-methoxy[1,1′-biphenyl]-4-carboxamide] | 174 to 176 °C |
| Cc1c(NC(=O)c2ccc(-c3ccc(OC(F)(F)F)cc3)cc2)ccc2cc(CN3CCCC3)cnc12 [Example 103, N-[8-methyl-3-(1-pyrrolidinylmethyl)-7-quinolinyl]-4′-(trifluoromethoxy)[1,1′-biphenyl]-4-carboxamide] | 200 to 202 °C |
| NC(=O)C1CCN(Cc2cnc3cc(NC(=O)c4ccc(-c5ccc(F)cc5)cc4)ccc3c2)CC1 [Example 42, 1-[(7-{[(4′-fluoro[1,1′-biphenyl]-4-yl)carbonyl]amino}-3-quinolinyl)methyl]-4-piperidine carboxamide] | 261 to 265 °C |
| Cc1ccc(C2CCN(C(=O)Nc3ccc4cc(CN5CCCCCC5)cnc4c3)CC2)cc1 [Example 35, N-[3-(1-azepanylmethyl)-7-quinolinyl]-4-(4-methylphenyl)-1-piperidine carboxamide] | 240 °C (dec.) |
| Cc1c(NC(=O)c2ccc(-c3ccccc3F)cc2)ccc2cc(CN3CCCC3)cnc12 [Example 99, 2′-fluoro-N-[8-methyl-3-(1-pyrrolidinylmethyl)-7-quinolinyl][1,1′-biphenyl]-4-carboxamide] | 133 to 135 °C |
| Cc1c(NC(=O)N2CCC(c3ccc(Cl)cc3)CC2)ccc2cc(CN3CCCC3)cnc12 [Example 98, 4-(4-chlorophenyl)-N-[8-methyl-3-(1-pyrrolidinylmethyl)-7-quinolinyl]-1-piperidine carboxamide] | 203 to 205 °C |
| CN(C)Cc1cnc2cc(NC(=O)c3ccc(-c4ccc(Cl)cc4)cc3)ccc2c1 [Example 1, 4′-chloro-N-[3-[(dimethylamino)methyl]-7-quinolinyl][1,1′-biphenyl]-4-carboxamide] | 236 to 238 °C |
| Cc1c(NC(=O)c2ccc(-c3ccc(F)cc3)nc2)ccc2cc(CN3CCCC3)cnc12 [Example 97, 6-(4-fluorophenyl)-N-[8-methyl-3-(1-pyrrolidinylmethyl)-7-quinolinyl]nicotinamide] | 207 to 209 °C |
| Cc1c(NC(=O)c2ccc(-c3ccccc3Cl)cc2)ccc2cc(CN3CCCC3)cnc12 (hydrate or solvate) [Example 108, 2′-chloro-N-[8-methyl-3-(1-pyrrolidinylmethyl)-7-quinolinyl][1,1′-biphenyl]-4-carboxamide] | 128 to 129 °C |

Molecular target: T1, SLC-1 expression CHO cell membrane fraction (MCH receptor) (UniProt Q99705)
T1 construct: full-length coding regions in pAKKO-111H
Test: Antagonistic activity of test compound using GTP γ S binding assay
Type: biochemical, human/rat
Conditions: inhibition of MCH-stimulated [35S]-GTPγS binding, 25° C., 1 hr, read-out: Inhibitory activity (IC50: nM)
Protocol: Using human SLC-1 expression CHO cell clone 57 obtained in Reference Example 1-10 and rat SLC-1 expression CHO cell clone 44 obtained in Reference Example 1-4, membrane fractions were prepared by the following method. In phosphate buffered saline (pH 7.4) supplemented with 5 mM EDTA (ethylenediamine tetraacetic acid) were suspended human and rat SLC-1 expression CHO cells (1×10^8) and centrifuged. Homogenate buffer (10 ml, 10 mM NaHCO3, 5 mM EDTA, pH 7.5) was added to the pellets of the cells and, using Polytron Homogeniser, the mixture was homogenated. The supernatant obtained after centrifugation at 400×g for 15 min was further centrifuged at 100,000×g for 1 hr to give precipitate of the membrane fraction. […]
The antagonistic activity of the test compound was determined as follows. […] Liquid scintillator (50 ml) was added to the glass filter and the residual radioactivity was determined by a liquid scintillation counter. Binding inhibition (%)=(radioactivity upon addition of compound and MCH−radioactivity upon addition of DMSO solution)/(radioactivity upon addition of MCH−radioactivity upon addition of DMSO solution)×100
From the binding inhibition (%), IC50 of the compound was calculated.

| IC50 [nM] | SMILES |
| --- | --- |
| 6 | COc1ccc(-c2ccc(C(=O)Nc3ccc4cc(CN5CCCC5)cnc4c3)cn2)cc1 [Example 8, 6-(4-methoxyphenyl)-N-[3-(1-pyrrolidinylmethyl)-7-quinolinyl]nicotinamide] |
